Source: ChEMBL document CHEMBL1155446, “Imidazo[4,5-b]pyridine derivatives as inhibitors of Aurora kinases: lead optimization studies toward the identification of an orally bioavailable preclinical development candidate” (J Med Chem, 2010)
Converted amounts (≈) assume the structure as drawn.

Key:
[1] = system: HCT-116; experiment: Growth inhibition of human HCT116 cells after 72 hrs by MTT assay; assay type: functional; conditions: HCT-116, 72 h
[2] = biological target: T1, Aurora kinase A (Homo sapiens, UniProt O14965)
T1 sequence (O14965 whole entry): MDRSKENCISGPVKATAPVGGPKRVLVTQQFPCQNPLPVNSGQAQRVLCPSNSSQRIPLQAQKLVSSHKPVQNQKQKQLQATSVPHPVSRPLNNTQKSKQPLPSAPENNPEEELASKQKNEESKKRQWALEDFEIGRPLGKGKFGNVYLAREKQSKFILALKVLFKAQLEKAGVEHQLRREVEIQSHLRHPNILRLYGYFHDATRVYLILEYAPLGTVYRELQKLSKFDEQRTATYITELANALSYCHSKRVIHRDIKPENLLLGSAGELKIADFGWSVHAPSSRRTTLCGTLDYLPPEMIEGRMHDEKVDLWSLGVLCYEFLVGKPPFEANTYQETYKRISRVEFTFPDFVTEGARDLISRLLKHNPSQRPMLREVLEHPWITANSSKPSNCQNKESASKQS
Description: Inhibition of human recombinant Aurora A expressed in baculovirus system

[3] = Metabolic stability in CD1 mouse liver microsomes assessed as compound remaining at 10 uM after 30 mins by LC-MS/MS analysis; assay type: ADME, Microsome; conditions: read-out: Stability
[4] = Aqueous solubility of the compound; assay type: physicochemical; conditions: buffer
[5] = Oral bioavailability in BALB/c mouse at 5 mg/kg; assay type: ADME, organism-based; conditions: in vivo

Row | SMILES | GI50 [1] [nM] | IC50 [2] [nM] | remaining at 0.5 h, 10 µM [3] [%] | solubility [4] [µg/mL] | bioavailability [5] [%]
1 | Cc1cc(CN2CCN(c3c(Br)cnc4[nH]c(-c5ccc(Cn6cccn6)cc5)nc34)CC2)no1 | 120 | – | – | – | –
2 | CN(C)c1ccc(-c2nc3c(N4CCN(S(=O)(=O)c5ccccc5)CC4)c(Br)cnc3[nH]2)cc1 | – | 178 | – | – | –
3 | O=C(CN1CCN(c2c(Cl)cnc3[nH]c(-c4ccc(CN5CCOCC5)cc4)nc23)CC1)Nc1nccs1 | 360 | 3 | – | – | –
4 | CN(C)c1ccc(-c2nc3c(N4CCN(CC(=O)Nc5cccc(Cl)c5)CC4)c(Cl)cnc3[nH]2)cc1 | 2670 | 75 | – | – | –
5 | COc1ccc(-c2nc3c(N4CCN(Cc5cccnc5)CC4)c(Br)cnc3[nH]2)cc1 | 1150 | 9 | – | – | –
6 | COc1ccc(-c2nc3c(N4CCN(CC(=O)Nc5nccs5)CC4)c(Cl)cnc3[nH]2)cc1 | 900 | 52 | – | – | –
7 | CC(c1ccccc1)N1CCN(c2c(Cl)cnc3[nH]c(-c4ccc(N(C)C)cc4)nc23)CC1 (stereo not drawn) | 900 | 79 | – | – | –
8 | O=C(CN1CCN(c2c(Br)cnc3[nH]c(-c4ccccc4)nc23)CC1)Nc1nccs1 | 3000 | 81 | – | – | –
9 | CC(C)CN1CCN(c2c(Br)cnc3[nH]c(-c4ccc(N(C)C)cc4)nc23)CC1 | 970 | 210 | – | – | –
10 | Cc1cc(CN2CCN(c3c(Br)cnc4nc(-c5ccc(CN6CCNCC6)cc5)[nH]c34)CC2)no1 | 78 | 10 | > 50 | 870 (≈ 1580 µM) | –
11 | COc1ccc(-c2nc3c(N4CCN(CC5CC5)CC4)c(Br)cnc3[nH]2)cc1 | 830 | 650 | – | – | –
12 | Cc1cc(CN2CCN(c3c(Cl)cnc4[nH]c(-c5ccc(Cn6cccn6)cc5)nc34)CC2)no1 | 450 | – | – | – | –
13 | CC(c1ccncc1)N1CCN(c2c(Br)cnc3[nH]c(-c4ccc(N(C)C)cc4)nc23)CC1 (stereo not drawn) | 900 | 85 | – | – | –
14 | Brc1cnc2[nH]c(-c3ccc(CN4CCOCC4)cc3)nc2c1N1CCN(Cc2cccnc2)CC1 | 280 | – | – | 30 (≈ 54.7 µM) | 13
15 | CN(C)c1ccc(-c2nc3c(N4CCN(C(=O)Nc5ccccc5)CC4)c(Br)cnc3[nH]2)cc1 | 10000 | 277 | – | – | –
16 | Cc1cc(CN2CCN(c3c(Br)cnc4nc(-c5ccc(CN(C)C)cc5)[nH]c34)CC2)no1 | 230 | 14 | > 50 | – | –
17 | Cn1ccnc1CN1CCN(c2c(Br)cnc3[nH]c(-c4ccc(CN5CCOCC5)cc4)nc23)CC1 | 1500 | 30 | – | – | –
18 | CN(C)c1ccc(-c2nc3c(N4CCN(Cc5ccncc5)CC4)c(Br)cnc3[nH]2)cc1 | 700 | 55 | – | – | –
19 | CN(C)Cc1ccc(-c2nc3c(N4CCN(CC(=O)Nc5nccs5)CC4)c(Br)cnc3[nH]2)cc1 | 1000 | 16 | – | – | –
20 | Cc1cc(CN2CCN(c3c(Br)cnc4[nH]c(-c5ccc(OCCO)cc5)nc34)CC2)no1 | 280 | 30 | > 50 | 10 (≈ 19.5 µM) | –
